ChEMBL document CHEMBL1138237, “Synthesis and anti-inflammatory/antioxidant activities of some new ring substituted 3-phenyl-1-(1,4-di-N-oxide quinoxalin-2-yl)-2-propen-1-one derivatives and of their 4,5-dihydro-(1H)-pyrazole analogues” (Bioorg Med Chem Lett, 2007)

Assays:
[1] = system: Radical scavenging activity; experiment: Antioxidant activity assessed as DPPH radical scavenging activity at 0.1 mM after 60 mins; format: functional
[2] = Antioxidant activity assessed as hydroxyl radical scavenging activity at 0.1 mM; format: functional
Rattus norvegicus = experiment: Antiinflammatory activity against carrageenan-induced paw edema rat model at 0.01 mmol/ml/kg; format: functional
[3] = biological target: T1, Seed linoleate 13S-lipoxygenase-1 (Glycine max, UniProt P08170); experiment: Inhibition of soybean lipoxygenase
T1 sequence (P08170 whole entry): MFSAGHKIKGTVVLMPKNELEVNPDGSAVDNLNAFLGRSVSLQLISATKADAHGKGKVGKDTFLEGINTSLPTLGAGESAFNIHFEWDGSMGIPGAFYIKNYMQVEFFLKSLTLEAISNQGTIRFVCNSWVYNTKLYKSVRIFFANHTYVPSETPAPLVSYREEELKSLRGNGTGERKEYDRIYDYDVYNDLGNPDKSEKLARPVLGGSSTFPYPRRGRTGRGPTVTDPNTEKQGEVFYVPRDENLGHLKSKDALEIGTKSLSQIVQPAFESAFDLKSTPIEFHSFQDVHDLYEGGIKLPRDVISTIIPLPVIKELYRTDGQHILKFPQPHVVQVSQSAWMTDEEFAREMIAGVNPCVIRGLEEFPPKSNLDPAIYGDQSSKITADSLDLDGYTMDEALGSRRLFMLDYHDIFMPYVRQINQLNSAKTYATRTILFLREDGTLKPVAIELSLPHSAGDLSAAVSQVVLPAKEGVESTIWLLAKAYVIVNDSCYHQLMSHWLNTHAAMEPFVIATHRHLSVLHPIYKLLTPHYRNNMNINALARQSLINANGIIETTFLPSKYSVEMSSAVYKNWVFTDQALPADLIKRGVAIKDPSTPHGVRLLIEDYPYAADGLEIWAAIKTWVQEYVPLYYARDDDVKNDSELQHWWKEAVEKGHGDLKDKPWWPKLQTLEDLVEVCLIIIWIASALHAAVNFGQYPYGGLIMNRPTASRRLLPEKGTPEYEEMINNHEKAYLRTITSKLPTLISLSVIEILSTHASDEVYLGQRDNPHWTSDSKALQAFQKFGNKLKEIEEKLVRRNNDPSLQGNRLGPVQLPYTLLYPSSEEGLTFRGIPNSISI

[4] = system: Radical scavenging activity; experiment: Antioxidant activity assessed as DPPH radical scavenging activity at 0.05 mM after 20 mins; format: functional
[5] = system: Radical scavenging activity; experiment: Antioxidant activity assessed as DPPH radical scavenging activity at 0.05 mM after 60 mins; format: functional
[6] = system: Radical scavenging activity; experiment: Antioxidant activity assessed as DPPH radical scavenging activity at 0.1 mM after 20 mins; format: functional
[7] = Antioxidant activity assessed as superoxide radical scavenging activity at 0.1 mM by nitroblue tetrazolium method; format: functional
[8] = biological target: T2, Seed linoleate 13S-lipoxygenase-1 (Glycine max) (UniProt P08170); experiment: Inhibition of soybean lipoxygenase at 100 uM
T2 sequence (whole entry): T1 sequence (P08170 whole entry)

Row | Structure (SMILES) | IC50 [3] | inhibition [8] | Activity [1] | Activity [2] | Inhibition (Rattus norvegicus) | Activity [4] | Activity [5] | Activity [6] | Activity [7]
1 | O=C(O)/C=C/c1ccc(O)c(O)c1 |  |  |  |  |  |  |  |  | 45%
2 | Cc1c(C)c2c(c(C)c1O)CCC(C)(C(=O)O)O2 (stereo not given) |  |  |  | 73.4% |  |  |  |  | 
3 | COc1ccc2c(c1)[n+]([O-])c(C(=O)/C=C/c1ccc(O)c(OC)c1)c(C)[n+]2[O-] |  | 55.7% | 70.4% | 97.3% | 21.3% | 45% | 59% | 51% | 
4 | COc1cc(/C=C/C(=O)c2c(C)[n+]([O-])c3ccccc3[n+]2[O-])cc(OC)c1OC | 42 µM |  |  | 99% | 55.4% |  |  |  | 100%
5 | COc1ccc2c(c1)c(CC(=O)O)c(C)n2C(=O)c1ccc(Cl)cc1 [INDOMETHACIN] |  |  |  |  | 47% |  |  |  | 
6 | CC(Cc1ccc(O)c(O)c1)C(C)Cc1ccc(O)c(O)c1 (stereo not given) |  |  | 82.6% |  |  | 68% | 72% | 81% | 
7 | COc1cc(C2CC(c3c(C)[n+]([O-])c4ccccc4[n+]3[O-])=NN2)cc(OC)c1OC (stereo not given) |  | 67.3% | 38% | 93.4% | 24.3% | 42% | 46% | 31% | 
8 | COc1cc(/C=C/C(=O)c2c(C)[n+]([O-])c3ccccc3[n+]2[O-])ccc1O | < 1 µM |  | 56% | 100% | 56.1% |  |  | 39.4% | 12.5%

Further lines, with some results ahead:

Row | IC50 [3] | inhibition [8] | Structure (SMILES) | Activity [1] | Activity [2] | Inhibition (Rattus norvegicus) | Activity [4] | Activity [5] | Activity [6] | Activity [7]
9 | 85 µM |  | COc1cc(/C=C/C(=O)c2c(C)[n+]([O-])c3ccc(F)cc3[n+]2[O-])ccc1O | 52% | 99.7% | 36.3% | 36.4% | 38.4% | 45.3% | 
10 | 31 µM |  | Cc1c(C(=O)/C=C/c2ccc3c(c2)OCO3)[n+]([O-])c2ccccc2[n+]1[O-] | 3% | 96% | 4.5% |  |  | 1% | 
11 | 70 µM |  | COc1cc(C2CC(c3c(C)[n+]([O-])c4ccc(F)cc4[n+]3[O-])=NN2)cc(OC)c1OC (stereo not given) | 68% | 99.3% | 23.4% | 58% | 67% | 51.6% | 
